Measurements as given in patent US9080154B1, “Cancer stem cell survivor lines” (BOWLING GREEN STATE UNIVERSITY, priority 2012, dated 2015).

Assays:
[1] = tested on: RelA (p65), the major subunit of NF-κB; assay: NF-κB level by ELISA in curcumin-surviving lines; type: cell-based, human
Description: (§1) To select for a curcumin-surviving cell subpopulation, each of the ESCC cell lines was cultured in 100-mm dishes (1×10^5 cells/dish) with complete DMEM and incubated at 37° C. until reaching near confluency, approximately 80%. After incubation, the medium was removed and the cells were incubated in complete DMEM containing either 40 or 60 μM curcumin in dissolved in 0.2% DMSO for 30 hrs. After incubation, the medium-containing curcumin was removed and replaced with complete DMEM to allow cells that survived the treatment to grow. After the surviving cells formed colonies (normally four weeks after treatment), the colonies were counted, trypsinized, and passaged. The cell lines that developed were designated the curcumin-surviving cell lines. To determine the level of ALDH1A1 and RelA (p65), the major subunit of transcription factor (NF-κB), on both curcumin-surviving cells and original cell lines, ELISA was performed as described previously. Briefly, each cell line was cultured in 96-well plates (5×10^4 cells/well) and incubated for 24 hrs at 37° C. After incubation, the wells were washed once with PBS and fixed with methanol for 5 min; the wells were then washed twice with PBS. Different dilutions of each antibody (anti-p65, Santa Cruz Biotechnology, SC-109, 200 μg/ml, and anti-ALDH1A1, Proteintech Group, 15910-1-AP, 133 μg/ml) were prepared in complete DMEM (1:50, 1:100, 1:200 and 1:500, 1:1000, 1:2000, respectively). The wells were incubated with 100 μl of each dilution (3 wells/dilution) for 2 hrs at 37° C. After incubation, the wells were washed with PBS three times and incubated with 100 μl/well of galactosidase-conjugated goat anti-rabbit secondary antibody (Southern Biotech, Birmingham, Ala.) (1:500 dilution in complete DMEM) for 2 hrs at 37° C. […] The antigen-antibody reactions were measured by determining the optical density (O.D.) at 410 nm using MR-600 microwell plate reader (Dynatech Lab Inc.). The resulting absorbance was analyzed using ANOVA.

ALDH1A1 [2] = assay: ALDH1A1 immunocytochemistry of curcumin-surviving lines; type: cell-based, human; conditions: survived 60 μM curcumin
Description: (§2) To select for a curcumin-surviving cell subpopulation, each of the ESCC cell lines was cultured in 100-mm dishes (1×10^5 cells/dish) with complete DMEM and incubated at 37° C. until reaching near confluency, approximately 80%. After incubation, the medium was removed and the cells were incubated in complete DMEM containing either 40 or 60 μM curcumin in dissolved in 0.2% DMSO for 30 hrs. After incubation, the medium-containing curcumin was removed and replaced with complete DMEM to allow cells that survived the treatment to grow. After the surviving cells formed colonies (normally four weeks after treatment), the colonies were counted, trypsinized, and passaged. The cell lines that developed were designated the curcumin-surviving cell lines.
(§3) To assess the expression of the stem cell markers ALDH1A1 and CD44 in both the original ESCC cell lines and the curcumin-surviving cell lines, each line was grown on glass cover slips in complete DMEM. After two days, the cover slips were rinsed with PBS and fixed with methanol for 5 min. The cover slips were then washed three times with PBS, exposed to 0.3% hydrogen peroxide for 3 min and rinsed three times with PBS. […]
(§4) The images of cell cultures immunostained for ALDH1A1 or CD44 were analyzed with ImageJ (NIH) and OriginLab (Microcal) software. […]

KY-5 cell line [3] = assay: crystal violet assay, cells remaining after curcumin; type: cell-based, human; conditions: 30 hrs
Description: (§5) To determine the effect of different doses of curcumin on the ESCC lines, each cell line was plated in 24-well plates (Corning) at a density of 5×10^4 cells/well in complete DMEM, and incubated at 37° C. Curcumin (Sigma-Aldrich, St Louis, Mo.) was dissolved in dimethyl sulfoxide (DMSO) to make a stock solution of 20 mM curcumin. For each experiment, stock solution was diluted to the final concentrations (20, 30, 40, 60 and 80 μM) in complete DMEM. Twenty-four hours after plating, the wells were washed with PBS once, and 1 ml of each curcumin dosage was added (4 wells/dosage) and incubated for 30 hrs. Four other wells received complete DMEM or complete DMEM with 0.2% DMSO as controls. The inhibition of cell growth in response to curcumin treatment was assayed with the crystal violet staining assay according to a standard protocol. Briefly, the cells in each well were washed once with PBS, stained with 200 μl crystal violet in 50% ethanol (10 mg/ml), and incubated at room temperature for 10 min. The crystal violet was then removed and the wells were washed two times with distilled water, and 600 μl of 1% sodium dodecylsulfate (SDS) in water was added to each well. The plates were maintained overnight at room temperature on a shaker to dissolve the dye. Absorbance was read at 490 nm using a Wallac Victor 1420 Multilabel plate reader (Perkin Elmer, Waltham, Mass.). The background readings from the SDS solution were subtracted from each reading and the percentage of cells remaining after curcumin treatment was calculated. The results were plotted in OriginPro 7.5 (OriginLab) and analyzed by ANOVA.
(§6) To assess the sensitivity of the six human ESCC lines to curcumin, the cell lines (TE-1, TE-8, KY-5, KY-10, YES-1, and YES-2) were plated in 24-well plates for 24 hrs and then exposed to 20, 30, 40, 60, and 80 μM curcumin and to 0.2% DMSO as a control for 30 hrs. The resulting cell density was determined by standard crystal violet assay. The cell density remaining after the treatment is shown in the dose-response curve (FIG. 2). […] However, KY-5 had the highest percentage of cells remaining at the highest curcumin concentration, and the YES-2 cell line had the lowest percentage of cells remaining. When the cell lines were ranked from low to high according to their sensitivity to 60 μM curcumin the order was: KY-5, YES-1, TE-8, TE-1, KY-10, and YES-2.

YES-2 cell line [4] = assay: as above; type: cell-based, human; conditions: 30 hrs
Description: as §5, §6

KY-10 cell line [5] = assay: as above; type: cell-based, human; conditions: 30 hrs, concentration that kills half the cells
Description: as §5, §6

ALDH1A1 [6] = assay: ALDH1A1 level by ELISA in curcumin-surviving lines; type: cell-based, human; conditions: all six surviving lines; t-test p<0.005
Description: as §1, with “PBS.” for “PBS. Different dilutions of each antibody (anti-p65, Santa Cruz Biotechnology, SC-109, 200 μg/ml, and anti-ALDH1A1, Proteintech Group, 15910-1-AP, 133 μg/ml) were prepared in complete DMEM (1:50, 1:100, 1:200 and 1:500, 1:1000, 1:2000, respectively). The wells were incubated with 100 μl of each dilution (3 wells/dilution) for 2 hrs at 37° C. After incubation, the wells were washed with PBS three times and incubated with 100 μl/well of galactosidase-conjugated goat anti-rabbit secondary antibody (Southern Biotech, Birmingham, Ala.) (1:500 dilution in complete DMEM) for 2 hrs at 37° C.”

TE-1 cell line = assay: surviving colonies after curcumin treatment; type: cell-based, human; conditions: 60 μM curcumin, 30 hrs
Description: as §2
(§7) According to the dose-response results, 60 μM curcumin was chosen to select for the curcumin-surviving cell line subpopulations. To establish this subpopulation, 1×10^5 cells from each ESCC lines were plated into a 100 mm tissue culture dishes and incubated until they reached near confluency. The cells were then exposed to 60 μM curcumin for 30 hrs. and the surviving colonies formed were counted. The number of colonies formed after 60 μM curcumin treatment varied among the six cell lines.

KY-5 cell line [7] = assay: surviving colonies after curcumin treatment; type: cell-based, human; conditions: 60 μM curcumin, 30 hrs
Description: as §2, §7

YES-1 cell line = assay: surviving colonies after curcumin treatment; type: cell-based, human; conditions: 60 μM curcumin, 30 hrs
Description: as §2, §7

TE-8 cell line = assay: surviving colonies after curcumin treatment; type: cell-based, human; conditions: 60 μM curcumin, 30 hrs
Description: as §2, §7

YES-2 cell line [8] = assay: surviving colonies after curcumin treatment; type: cell-based, human; conditions: 30 hrs
Description: as §2, §7

KY-10 cell line [9] = assay: surviving colonies after curcumin treatment; type: cell-based, human; conditions: 60 μM curcumin, 30 hrs
Description: as §2, §7

CD44 = CD44 immunocytochemistry of curcumin-surviving lines; type: cell-based, human
Description: as §2, §3, §4

[10] = tested on: six human ESCC lines (TE-1, TE-8, KY-5, KY-10, YES-1, YES-2); assay: crystal violet assay, cells remaining after curcumin; type: cell-based; conditions: 20-80 μM curcumin, 30 hrs; all six ESCC lines
Description: as §5, with “The inhibition of cell growth in response to curcumin treatment was assayed with the crystal violet staining assay according to a standard protocol. Briefly, the cells in each well were washed once with PBS, stained with 200 μl crystal violet in 50% ethanol (10 mg/ml), and incubated at room temperature for 10 min. The crystal violet was then removed and the wells were washed two times with distilled water, and 600 μl of 1% sodium dodecylsulfate (SDS) in water was added to each well. The plates were maintained overnight at room temperature on a shaker to dissolve the dye.” left out
To assess the sensitivity of the six human ESCC lines to curcumin, the cell lines (TE-1, TE-8, KY-5, KY-10, YES-1, and YES-2) were plated in 24-well plates for 24 hrs and then exposed to 20, 30, 40, 60, and 80 μM curcumin and to 0.2% DMSO as a control for 30 hrs. The resulting cell density was determined by standard crystal violet assay. […]

[11] = concentration that kills half the cells

In the case of `COc1cc(/C=C/C(=O)CC(=O)/C=C/c2ccc(O)c(OC)c2)ccc1O` [curcumin], the “NF-κB level of curcumin-surviving lines compared to original lines” value ([1]; KY-5, YES-1 and YES-2 surviving lines, t-test p<0.005) is reported as “lower NF-κB levels”, the “NF-κB level of curcumin-surviving line compared to original line” value ([1]; KY-10 surviving line, t-test p>0.05) is reported as “no difference” and the “NF-κB level of curcumin-surviving lines compared to original lines” value ([1]; TE-1 and TE-8 surviving lines) is reported as “increase of NF-κB level”. For the same compound, the “percentage of high ALDH1A1-staining cells in curcumin-surviving line” value (ALDH1A1 [2]; KY-5S, original lines ranged 11.3% to 55.7%, KY-5 greatest) was 19%, the “percentage of high ALDH1A1-staining cells in curcumin-surviving line” value (ALDH1A1 [2]; TE-8S) was 0% and the “cells remaining after curcumin” value (KY-5 cell line [3]; 80 μM curcumin, crystal violet) was 37%. The LD50 (KY-5 cell line [3]; [11]) was 32 µM, the “attached cells remaining after curcumin” value (YES-2 cell line [4]; 80 μM curcumin, crystal violet) was 4% and the LD50 (YES-2 cell line [4]; [11]) was 15 µM. The LD50 (KY-10 cell line [5]) was “less than 10 μM”, the “ALDH1A1 level of curcumin-surviving lines compared to original lines” value (ALDH1A1 [6]) was “lower ALDH1A1 level” and the “number of surviving colonies formed” value (TE-1 cell line) was 8. The “number of surviving colonies formed” value (KY-5 cell line [7]) was “too many colonies to count”, the “number of surviving colonies formed” value (YES-1 cell line) was 25 and the “number of surviving colonies formed” value (TE-8 cell line) was 17. For the same compound, the “number of surviving colonies formed” value (YES-2 cell line [8]; 40 μM curcumin) was 15, the “number of surviving colonies formed” value (YES-2 cell line [8]; 60 μM curcumin) was 0 and the “number of surviving colonies formed” value (KY-10 cell line [9]) was 19. The “percentage of high CD44-staining cells in curcumin-surviving line” value (CD44; YES-1S, survived 60 μM curcumin, original YES-1 16%) was 6.5%, the “percentage of high CD44-staining cells in curcumin-surviving line” value (CD44; YES-2S, survived 40 μM curcumin, original YES-2 19%) was 9.2% and the reduction in cells [10] was “reduction in cells in a dosage dependent manner”.
